As a reminder, the IC50 is the midpoint of a concentration-inhibition curve.

Data on six molecules can be found in patent US20240408216A1, “PROTEIN INHIBITOR OR DEGRADING AGENT, PHARMACEUTICAL COMPOSITION CONTAINING SAME AND PHARMACEUTICAL USE” (JING MEDICINE TECHNOLOGY (SHANGHAI) LTD., priority 2021, published 2024).

Where only a bound is given, the exact number is not on record here.

The first experiment has as its system BaF3 (EGFR L858R/T790M/C797S). The experiment in a line: Cell proliferation IC50 assay (Cell Titer GLO), BaF3 LTC cells. In kind it is cell-based. The settings on record: Mus musculus, Ba/F3 EGFR, Table 6, 72 h. Put shortly: (§1)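 Each cell line, plated at 2000-4000 cells/well, received serially diluted compound for 72 h (37° C, 5% CO2) before luminescent ATP-based viability detection. IC50 values were derived from growth inhibition relative to DMSO-treated and cell-free blank wells.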
Background: ATP-based viability assays read luminescence as a measure of living cells.
Turning to `CCc1cc(Nc2ncc(Cl)c(Nc3ccccc3P(C)(C)=O)n2)c(OC(F)(F)F)cc1N1CCC(N2CCN(CCOc3cccc4c3CN(C3CCC(=O)NC3=O)C4=O)CC2)CC1` (stereo not drawn) [Example E152], the 50% inhibitory concentration (IC50) is 0.227 µM.
`CCc1cc(Nc2ncc(-c3cnn(C)c3)c(Nc3ccccc3P(C)(C)=O)n2)c(OC)cc1N1CCC(N2CCN([C@H]3C[C@@H](Oc4cccc5c4CN(C4CCC(=O)NC4=O)C5=O)C3)CC2)CC1` (stereo partly drawn) [Example E69] displayed an IC50 of 0.114 µM.
Molecule `CCc1cc(Nc2ncc(Cl)c(Nc3ccccc3P(C)(C)=O)n2)c(OC)cc1N1CCC(N2CCN(CCCC#Cc3ccc4c(N5CCC(=O)NC5=O)nn(C)c4c3)CC2)CC1` [Example E97] yielded an IC50 of 0.173 µM.
Same read-out and setting: to `COc1cc(N2CCC(N3CCc4cc(Oc5cccc6c5CN(C5CCC(=O)NC5=O)C6=O)ccc4C3)CC2)c(C2CC2)cc1Nc1ncc(Cl)c(Nc2ccccc2P(C)(C)=O)n1` (stereo not drawn) [Example E75] belongs 0.0642 µM.
The same measure, in the same setting: as for `[2H]C([2H])([2H])C([2H])([2H])c1cc(Nc2ncc(Cl)c(Nc3ccccc3P(C)(C)=O)n2)c(OC)cc1N1CCC(N2CCN(CCOc3ccc4c(c3)CN(C3CCC(=O)NC3=O)C4=O)CC2)CC1` (stereo not drawn) [Example E221], the figure is 0.0225 µM; as for `CCc1cc(Nc2ncc(Cl)c(Nc3ccc(C)c(C)c3P(C)(C)=O)n2)c(OC)cc1N1CCC(N2CCN(CCCCOc3cccc4c3CN(C3CCC(=O)NC3=O)C4=O)CC2)CC1` (stereo not drawn) [Example E63], 0.0493 µM.

Another experiment has as its system BaF3 (EGFR Del19/T790M/C797S). The experiment in a line: Cell proliferation IC50 assay (Cell Titer GLO), BaF3 DTC cells. The class given is cell-based. The following applies: Mus musculus, Ba/F3 EGFR-Del19/T790M/C797S, Table 6, 72 h. As for the experimental part:
IC50 of compounds in the present invention was determined by Cell Titer GLO reagent from Promega. The procedures are as follows:
Tumor cells were cultured in specified medium in an incubator at 37° C. and 5% CO2. The cells were passaged periodically. Cells at the logarithmic growth phase were collected for plating at a density of 2000-4000 cells/well. The next day, the compounds of the present invention were serially diluted and added to the cells, with DMSO being the negative control and the culture media without cells being the blank control. The plate was incubated in the incubator for 72 h. The cell viability assay was performed by adding the detection reagents to the cell culture media according to Cell Titer GLO reagent instructions and detecting luminescent signals on an EnVision microplate reader (PerkinElmer).
Inhibition of cell growth by the compounds of the present invention was plotted by Prism Graphpad software for statistically calculating the IC50 of the compound of the present invention.
Regarding `CCc1cc(Nc2ncc(Cl)c(Nc3ccccc3P(C)(C)=O)n2)c(OC(F)(F)F)cc1N1CCC(N2CCN(CCOc3cccc4c3CN(C3CCC(=O)NC3=O)C4=O)CC2)CC1` (stereo not drawn) [Example E152], the IC50 came to 0.00763 µM.
On the same count and under the same terms, to `CCc1cc(Nc2ncc(-c3cnn(C)c3)c(Nc3ccccc3P(C)(C)=O)n2)c(OC)cc1N1CCC(N2CCN([C@H]3C[C@@H](Oc4cccc5c4CN(C4CCC(=O)NC4=O)C5=O)C3)CC2)CC1` (stereo partly drawn) [Example E69] belongs 0.0153 µM; to `CCc1cc(Nc2ncc(Cl)c(Nc3ccccc3P(C)(C)=O)n2)c(OC)cc1N1CCC(N2CCN(CCCC#Cc3ccc4c(N5CCC(=O)NC5=O)nn(C)c4c3)CC2)CC1` [Example E97], 0.0456 µM.
The same measure, in the same setting: to `COc1cc(N2CCC(N3CCc4cc(Oc5cccc6c5CN(C5CCC(=O)NC5=O)C6=O)ccc4C3)CC2)c(C2CC2)cc1Nc1ncc(Cl)c(Nc2ccccc2P(C)(C)=O)n1` (stereo not drawn) [Example E75] belongs 0.0263 µM; to `[2H]C([2H])([2H])C([2H])([2H])c1cc(Nc2ncc(Cl)c(Nc3ccccc3P(C)(C)=O)n2)c(OC)cc1N1CCC(N2CCN(CCOc3ccc4c(c3)CN(C3CCC(=O)NC3=O)C4=O)CC2)CC1` (stereo not drawn) [Example E221], 0.0121 µM.
Molecule `CCc1cc(Nc2ncc(Cl)c(Nc3ccc(C)c(C)c3P(C)(C)=O)n2)c(OC)cc1N1CCC(N2CCN(CCCCOc3cccc4c3CN(C3CCC(=O)NC3=O)C4=O)CC2)CC1` (stereo not drawn) [Example E63] yielded an IC50 of 0.00731 µM.

Another experiment concerns A431. The experiment in a line: Cell proliferation IC50 assay (Cell Titer GLO), A431 cells. The class given is cell-based. The following applies: Homo sapiens, A-431; Table 6; A431, 72 h; read-out: A431 IC50. Put shortly:
as §1
On to `CCc1cc(Nc2ncc(Cl)c(Nc3ccccc3P(C)(C)=O)n2)c(OC(F)(F)F)cc1N1CCC(N2CCN(CCOc3cccc4c3CN(C3CCC(=O)NC3=O)C4=O)CC2)CC1` (stereo not drawn) [Example E152], for which the half-inhibitory concentration (IC50) was found to be 1.47 µM.
Same read-out and setting: as for `CCc1cc(Nc2ncc(-c3cnn(C)c3)c(Nc3ccccc3P(C)(C)=O)n2)c(OC)cc1N1CCC(N2CCN([C@H]3C[C@@H](Oc4cccc5c4CN(C4CCC(=O)NC4=O)C5=O)C3)CC2)CC1` (stereo partly drawn) [Example E69], the figure is 0.344 µM; as for `CCc1cc(Nc2ncc(Cl)c(Nc3ccccc3P(C)(C)=O)n2)c(OC)cc1N1CCC(N2CCN(CCCC#Cc3ccc4c(N5CCC(=O)NC5=O)nn(C)c4c3)CC2)CC1` [Example E97], 1.07 µM; as for `COc1cc(N2CCC(N3CCc4cc(Oc5cccc6c5CN(C5CCC(=O)NC5=O)C6=O)ccc4C3)CC2)c(C2CC2)cc1Nc1ncc(Cl)c(Nc2ccccc2P(C)(C)=O)n1` (stereo not drawn) [Example E75], over 4 µM.
Same read-out and setting: as for `[2H]C([2H])([2H])C([2H])([2H])c1cc(Nc2ncc(Cl)c(Nc3ccccc3P(C)(C)=O)n2)c(OC)cc1N1CCC(N2CCN(CCOc3ccc4c(c3)CN(C3CCC(=O)NC3=O)C4=O)CC2)CC1` (stereo not drawn) [Example E221], the figure is over 4 µM; as for `CCc1cc(Nc2ncc(Cl)c(Nc3ccc(C)c(C)c3P(C)(C)=O)n2)c(OC)cc1N1CCC(N2CCN(CCCCOc3cccc4c3CN(C3CCC(=O)NC3=O)C4=O)CC2)CC1` (stereo not drawn) [Example E63], 1.15 µM.

In the next experiment the test system is BaF3 (EGFR WT). The experiment in a line: Cell proliferation IC50 assay (Cell Titer GLO), BaF3 WT cells. In kind it is cell-based. The following applies: Mus musculus, Ba/F3 EGFR, Table 6, 10 ng/ml EGF, 72 h. Put shortly: as §1
Turning to `CCc1cc(Nc2ncc(Cl)c(Nc3ccccc3P(C)(C)=O)n2)c(OC(F)(F)F)cc1N1CCC(N2CCN(CCOc3cccc4c3CN(C3CCC(=O)NC3=O)C4=O)CC2)CC1` (stereo not drawn) [Example E152], the IC50 was over 4 µM.
The same measure, in the same setting: to `CCc1cc(Nc2ncc(-c3cnn(C)c3)c(Nc3ccccc3P(C)(C)=O)n2)c(OC)cc1N1CCC(N2CCN([C@H]3C[C@@H](Oc4cccc5c4CN(C4CCC(=O)NC4=O)C5=O)C3)CC2)CC1` (stereo partly drawn) [Example E69] belongs 0.168 µM.
As for `CCc1cc(Nc2ncc(Cl)c(Nc3ccccc3P(C)(C)=O)n2)c(OC)cc1N1CCC(N2CCN(CCCC#Cc3ccc4c(N5CCC(=O)NC5=O)nn(C)c4c3)CC2)CC1` [Example E97], the half-inhibitory concentration (IC50) came out at 1.06 µM.
In the case of `COc1cc(N2CCC(N3CCc4cc(Oc5cccc6c5CN(C5CCC(=O)NC5=O)C6=O)ccc4C3)CC2)c(C2CC2)cc1Nc1ncc(Cl)c(Nc2ccccc2P(C)(C)=O)n1` (stereo not drawn) [Example E75], it took 0.0803 µM to reach half-maximal inhibition (IC50).
The same measure, in the same setting: to `[2H]C([2H])([2H])C([2H])([2H])c1cc(Nc2ncc(Cl)c(Nc3ccccc3P(C)(C)=O)n2)c(OC)cc1N1CCC(N2CCN(CCOc3ccc4c(c3)CN(C3CCC(=O)NC3=O)C4=O)CC2)CC1` (stereo not drawn) [Example E221] belongs 1.75 µM; to `CCc1cc(Nc2ncc(Cl)c(Nc3ccc(C)c(C)c3P(C)(C)=O)n2)c(OC)cc1N1CCC(N2CCN(CCCCOc3cccc4c3CN(C3CCC(=O)NC3=O)C4=O)CC2)CC1` (stereo not drawn) [Example E63], 0.659 µM.

The target of a further experiment is T1, BaF3 (EGFR Del19/C797S) (Homo sapiens, UniProt P00533, C797S, cells depend on it, form not given).
T1 construct: BaF3 (EGFR Del19/C797S)|DC|RPMI1640 + 10% FBS
T1 sequence (P00533 with tags, fused parts or gaps DEL746-750/C797S, form open): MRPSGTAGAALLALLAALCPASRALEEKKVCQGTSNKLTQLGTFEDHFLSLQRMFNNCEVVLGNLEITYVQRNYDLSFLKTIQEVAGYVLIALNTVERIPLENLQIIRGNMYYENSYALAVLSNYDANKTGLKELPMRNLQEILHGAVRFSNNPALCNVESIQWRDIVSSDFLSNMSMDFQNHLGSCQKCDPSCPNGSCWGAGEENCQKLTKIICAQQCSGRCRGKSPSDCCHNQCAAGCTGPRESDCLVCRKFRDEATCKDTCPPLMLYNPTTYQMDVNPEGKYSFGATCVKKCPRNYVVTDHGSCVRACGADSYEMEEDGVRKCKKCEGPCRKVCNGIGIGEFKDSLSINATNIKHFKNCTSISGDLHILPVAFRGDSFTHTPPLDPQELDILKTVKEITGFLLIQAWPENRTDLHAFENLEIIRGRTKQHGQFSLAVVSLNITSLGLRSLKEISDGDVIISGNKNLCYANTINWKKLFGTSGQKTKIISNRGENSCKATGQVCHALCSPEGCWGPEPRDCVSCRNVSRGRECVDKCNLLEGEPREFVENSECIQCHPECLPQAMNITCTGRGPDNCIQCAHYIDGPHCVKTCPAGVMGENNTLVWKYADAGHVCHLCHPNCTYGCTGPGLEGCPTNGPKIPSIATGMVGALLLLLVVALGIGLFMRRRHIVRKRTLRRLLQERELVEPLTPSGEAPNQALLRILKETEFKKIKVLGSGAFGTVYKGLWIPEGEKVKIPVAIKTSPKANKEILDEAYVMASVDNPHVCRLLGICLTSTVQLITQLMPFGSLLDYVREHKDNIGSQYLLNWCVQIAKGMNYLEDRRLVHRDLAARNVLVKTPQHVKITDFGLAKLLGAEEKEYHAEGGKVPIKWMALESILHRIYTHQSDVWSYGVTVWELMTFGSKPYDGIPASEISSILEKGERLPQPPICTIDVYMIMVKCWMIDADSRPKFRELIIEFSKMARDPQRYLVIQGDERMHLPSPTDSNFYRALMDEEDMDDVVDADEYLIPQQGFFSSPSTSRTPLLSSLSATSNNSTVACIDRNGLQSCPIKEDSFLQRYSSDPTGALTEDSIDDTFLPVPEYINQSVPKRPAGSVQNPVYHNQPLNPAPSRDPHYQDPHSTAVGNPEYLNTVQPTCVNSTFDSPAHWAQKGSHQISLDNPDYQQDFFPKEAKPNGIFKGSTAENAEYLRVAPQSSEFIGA
Nature of the experiment: Cell proliferation IC50 assay (Cell Titer GLO), BaF3 DC cells. The following applies: Table 6, 72 h. The class given is cell-based, mouse. A digest of the protocol: as §1
As for `CCc1cc(Nc2ncc(Cl)c(Nc3ccccc3P(C)(C)=O)n2)c(OC(F)(F)F)cc1N1CCC(N2CCN(CCOc3cccc4c3CN(C3CCC(=O)NC3=O)C4=O)CC2)CC1` (stereo not drawn) [Example E152], the IC50 came out at 0.0162 µM.
The same measure, in the same setting: to `CCc1cc(Nc2ncc(-c3cnn(C)c3)c(Nc3ccccc3P(C)(C)=O)n2)c(OC)cc1N1CCC(N2CCN([C@H]3C[C@@H](Oc4cccc5c4CN(C4CCC(=O)NC4=O)C5=O)C3)CC2)CC1` (stereo partly drawn) [Example E69] belongs 0.0007 µM.
On the same count and under the same terms, to `CCc1cc(Nc2ncc(Cl)c(Nc3ccccc3P(C)(C)=O)n2)c(OC)cc1N1CCC(N2CCN(CCCC#Cc3ccc4c(N5CCC(=O)NC5=O)nn(C)c4c3)CC2)CC1` [Example E97] belongs 0.0206 µM; to `COc1cc(N2CCC(N3CCc4cc(Oc5cccc6c5CN(C5CCC(=O)NC5=O)C6=O)ccc4C3)CC2)c(C2CC2)cc1Nc1ncc(Cl)c(Nc2ccccc2P(C)(C)=O)n1` (stereo not drawn) [Example E75], 0.0202 µM.
The same measure, in the same setting: to `[2H]C([2H])([2H])C([2H])([2H])c1cc(Nc2ncc(Cl)c(Nc3ccccc3P(C)(C)=O)n2)c(OC)cc1N1CCC(N2CCN(CCOc3ccc4c(c3)CN(C3CCC(=O)NC3=O)C4=O)CC2)CC1` (stereo not drawn) [Example E221] belongs 0.0064 µM; to `CCc1cc(Nc2ncc(Cl)c(Nc3ccc(C)c(C)c3P(C)(C)=O)n2)c(OC)cc1N1CCC(N2CCN(CCCCOc3cccc4c3CN(C3CCC(=O)NC3=O)C4=O)CC2)CC1` (stereo not drawn) [Example E63], 0.0026 µM.
